“Also recorded” adds a separate entry of the source. Each block holds one compound with its values, some of them ahead of it.
Columns and labels:
[1] = system: granulocyte progenitor (Gran-lin prog); assay: MLTA, GranP: concentration-response and QSP model fit; format: cell-based, human; conditions: Homo sapiens, 144 h; for activity at 0.0002 µM: dose 0.2 nM; for activity at 0.0002 µM / activity at 0.001 µM / activity at 0.005 µM / activity at 0.025 µM / activity at 0.1 µM / activity at 0.5 µM / activity at 2.5 µM: 6 days, normalized to vehicle control, read-out: GranPs normalized cell count; for activity at 0.001 µM: dose 1 nM; for activity at 0.005 µM: dose 5 nM; for activity at 0.025 µM: dose 25 nM; for activity at 0.1 µM: dose 100 nM; for activity at 0.5 µM: dose 500 nM; for activity at 2.5 µM: dose 2500 nM; for Emax: parameter from QSP model fitting, read-out: Emax_drug_GranP
Method in brief: (§1)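 Six-day flow cytometry counts, bead-normalized and expressed relative to the mean of six vehicle wells, underlie each value. Cells were primary human bone marrow CD34+ cells cultured in SFEM II with cytokines promoting multi-lineage differentiation and self-renewal.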

[2] = system: monocyte progenitors (monocyte prog); assay: MLTA, MonoP: concentration-response and QSP model fit; format: cell-based, human; conditions: Homo sapiens, Monocyte, 144 h; for activity at 0.0002 µM: dose 0.2 nM; for activity at 0.0002 µM / activity at 0.001 µM / activity at 0.005 µM / activity at 0.025 µM / activity at 0.1 µM / activity at 0.5 µM / activity at 2.5 µM: 6 days, normalized to vehicle control, read-out: MonoPs normalized cell count; for activity at 0.001 µM: dose 1 nM; for activity at 0.005 µM: dose 5 nM; for activity at 0.025 µM: dose 25 nM; for activity at 0.1 µM: dose 100 nM; for activity at 0.5 µM: dose 500 nM; for activity at 2.5 µM: dose 2500 nM; for Emax: parameter from QSP model fitting, read-out: Emax_drug_MonoP
Method in brief: as §1

[3] = system: neutrophils (neutrophil-lin); assay: MLTA, Neut: concentration-response and QSP model fit; format: cell-based, human; conditions: Homo sapiens, Neutrophil, 144 h; for EC50: QSP model fit of 6-day MLTA data; for activity at 0.0002 µM: dose 0.2 nM; for activity at 0.0002 µM / activity at 0.001 µM / activity at 0.005 µM / activity at 0.025 µM / activity at 0.1 µM / activity at 0.5 µM / activity at 2.5 µM: 6 days, normalized to vehicle control, read-out: Neut normalized cell count; for activity at 0.001 µM: dose 1 nM; for activity at 0.005 µM: dose 5 nM; for activity at 0.025 µM: dose 25 nM; for activity at 0.1 µM: dose 100 nM; for activity at 0.5 µM: dose 500 nM; for activity at 2.5 µM: dose 2500 nM; for Emax: parameter from QSP model fitting, read-out: Emax_drug_Neut
Method in brief: (§2)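 Drug was added at time 0 to thawed human bone marrow CD34+ cells in SFEM II plus a cytokine cocktail. After 6 days at 37°C, subsets were counted by surface-marker flow with TruCount beads. Vehicle-normalized, donor-pooled data then fed an Emax model separating anti-proliferative from cell-killing effects.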

[4] = system: early erythroid cells (Eryth I); assay: MLTA, ErythI: concentration-response and QSP model fit; format: cell-based, human; conditions: Homo sapiens, 144 h; for activity at 0.0002 µM: dose 0.2 nM; for activity at 0.0002 µM / activity at 0.001 µM / activity at 0.005 µM / activity at 0.025 µM / activity at 0.1 µM / activity at 0.5 µM / activity at 2.5 µM: 6 days, normalized to vehicle control, read-out: ErythI normalized cell count; for activity at 0.001 µM: dose 1 nM; for activity at 0.005 µM: dose 5 nM; for activity at 0.025 µM: dose 25 nM; for activity at 0.1 µM: dose 100 nM; for activity at 0.5 µM: dose 500 nM; for activity at 2.5 µM: dose 2500 nM; for Emax: parameter from QSP model fitting, read-out: Emax_drug_ErythroidI
Method in brief: as §1

[5] = system: late erythroid cells (Eryth II); assay: MLTA, ErythII: concentration-response and QSP model fit; format: cell-based, human; conditions: Homo sapiens, 144 h; for EC50: QSP model fit of 6-day MLTA data, read-out: EC50ErythII; for activity at 0.0002 µM: dose 0.2 nM; for activity at 0.0002 µM / activity at 0.001 µM / activity at 0.005 µM / activity at 0.025 µM / activity at 0.1 µM / activity at 0.5 µM / activity at 2.5 µM: 6 days, normalized to vehicle control, read-out: ErythII normalized cell count; for activity at 0.001 µM: dose 1 nM; for activity at 0.005 µM: dose 5 nM; for activity at 0.025 µM: dose 25 nM; for activity at 0.1 µM: dose 100 nM; for activity at 0.5 µM: dose 500 nM; for activity at 2.5 µM: dose 2500 nM; for Emax: parameter from QSP model fitting, read-out: Emax_drug_ErythroidII
Method in brief: as §2

MK cells (MK-lin) = assay: MLTA, MK: concentration-response and QSP model fit; format: cell-based, human; conditions: Homo sapiens, 144 h; for EC50: QSP model fit of 6-day MLTA data; for activity at 0.0002 µM: dose 0.2 nM; for activity at 0.0002 µM / activity at 0.001 µM / activity at 0.005 µM / activity at 0.025 µM / activity at 0.1 µM / activity at 0.5 µM / activity at 2.5 µM: 6 days, normalized to vehicle control, read-out: MK normalized cell count; for activity at 0.001 µM: dose 1 nM; for activity at 0.005 µM: dose 5 nM; for activity at 0.025 µM: dose 25 nM; for activity at 0.1 µM: dose 100 nM; for activity at 0.5 µM: dose 500 nM; for activity at 2.5 µM: dose 2500 nM; for Emax: parameter from QSP model fitting, read-out: Emax_drug_MK
Method in brief: as §2

[6] = system: total viable cells (totalViableCells); assay: MLTA, total live cells concentration-response; format: cell-based; conditions: Homo sapiens, 144 h, 6 days, normalized to vehicle control, read-out: total_live normalized cell count; for viability at 0.0002 µM: dose 0.2 nM; for viability at 0.001 µM: dose 1 nM; for viability at 0.005 µM: dose 5 nM; for viability at 0.025 µM: dose 25 nM; for viability at 0.1 µM: dose 100 nM; for viability at 0.5 µM: dose 500 nM; for viability at 2.5 µM: dose 2500 nM
Method in brief: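 Freeze-thawed primary human bone marrow CD34+ cells in SFEM II with cytokine cocktail, drug added day 0, 6 days at 37°C, 5% CO2. Live/dead counts by 17-parameter flow cytometry with DAPI exclusion, bead-normalized, volume-corrected to cells/mL. Normalized per donor to mean of six vehicle wells; 2–7 donors pooled.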

[7] = system: human bone marrow-derived CD34+ cells differentiated into multiple hematopoietic lineages; assay: MLTA, overall effects across hematopoietic lineages; format: cell-based
Method in brief: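 Thawed primary human bone marrow CD34+ cells grown in SFEM II with a multi-lineage cytokine cocktail, drug added day 0, 6 days at 37°C, 5% CO2. Subsets counted by 17-parameter flow cytometry with TruCount beads, normalized to six vehicle wells per donor (2–7 donors); Emax model fitted per cell type.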

EC50 ([1]; QSP model fit of 6-day MLTA data, read-out: EC50GranP): 93 nM
EC50 ([2]; QSP model fit of 6-day MLTA data, read-out: EC50MonoP): 117 nM
EC50 [3]: 132 nM
EC50 [5]: 191 nM
EC50 (MK cells (MK-lin)): 1070 nM
Structure (SMILES): CS(=O)(=O)N1CCN(Cc2cc3nc(-c4cccc5[nH]ncc45)nc(N4CCOCC4)c3s2)CC1 [pictilisib]
activity at 0.0002 µM [1]: 95.5%
activity at 0.001 µM [1]: 100%
activity at 0.005 µM [1]: 101%
activity at 0.025 µM [1]: 84%
activity at 0.1 µM [1]: 70.2%
activity at 0.5 µM [1]: 60.8%
activity at 2.5 µM [1]: 28.4%
Emax [1]: 60.5%
activity at 0.0002 µM [2]: 105%
activity at 0.001 µM [2]: 94.3%
activity at 0.005 µM [2]: 87.2%
activity at 0.025 µM [2]: 74.8%
activity at 0.1 µM [2]: 49%
activity at 0.5 µM [2]: 30.2%
activity at 2.5 µM [2]: 11.3%
Emax [2]: 140%
activity at 0.0002 µM [3]: 92.7%
activity at 0.001 µM [3]: 82.6%
activity at 0.005 µM [3]: 64.5%
activity at 0.025 µM [3]: 59.8%
activity at 0.1 µM [3]: 30.4%
activity at 0.5 µM [3]: 6.17%
activity at 2.5 µM [3]: 0.529%
Emax [3]: 16.5%
activity at 0.0002 µM [4]: 110%
activity at 0.001 µM [4]: 107%
activity at 0.005 µM [4]: 107%
activity at 0.025 µM [4]: 100%
activity at 0.1 µM [4]: 92.8%
activity at 0.5 µM [4]: 65.5%
activity at 2.5 µM [4]: 27.5%
Emax [4]: 0.03%
activity at 0.0002 µM [5]: 94.6%
activity at 0.001 µM [5]: 92%
activity at 0.005 µM [5]: 90%
activity at 0.025 µM [5]: 86.7%
activity at 0.1 µM [5]: 55.5%
activity at 0.5 µM [5]: 23.3%
activity at 2.5 µM [5]: 5.88%
Emax [5]: 13.6%
activity at 0.0002 µM (MK cells (MK-lin)): 100%
activity at 0.001 µM (MK cells (MK-lin)): 107%
activity at 0.005 µM (MK cells (MK-lin)): 113%
activity at 0.025 µM (MK cells (MK-lin)): 85.6%
activity at 0.1 µM (MK cells (MK-lin)): 78.4%
activity at 0.5 µM (MK cells (MK-lin)): 49.7%
activity at 2.5 µM (MK cells (MK-lin)): 16.8%
Emax (MK cells (MK-lin)): 12.3%
viability at 0.0002 µM [6]: 97.8%
viability at 0.001 µM [6]: 96.4%
viability at 0.005 µM [6]: 91.2%
viability at 0.025 µM [6]: 84%
viability at 0.1 µM [6]: 60.1%
viability at 0.5 µM [6]: 33.9%
viability at 2.5 µM [6]: 12.9%
effect on hematopoietic cell numbers across cell types ([7]; 0.2-2500 nM, 6 days, relative to vehicle control): moderate reduction of cells types; also recorded: decreased most cell types

EC50 [3]: 75 nM
EC50 [5]: 99.5 nM
EC50 (MK cells (MK-lin)): 759 nM
Structure (SMILES): CC(=O)c1c(C)c2cnc(Nc3ccc(N4CCNCC4)cn3)nc2n(C2CCCC2)c1=O [palbociclib]
activity at 0.0002 µM [1]: 98.2%
activity at 0.001 µM [1]: 107%
activity at 0.005 µM [1]: 91.8%
activity at 0.025 µM [1]: 73.4%
activity at 0.1 µM [1]: 37%
activity at 0.5 µM [1]: 8.03%
activity at 2.5 µM [1]: 0.794%
Emax [1]: 4.7%
activity at 0.0002 µM [2]: 101%
activity at 0.001 µM [2]: 92.3%
activity at 0.005 µM [2]: 97.3%
activity at 0.025 µM [2]: 44.4%
activity at 0.1 µM [2]: 14.1%
activity at 0.5 µM [2]: 4.6%
activity at 2.5 µM [2]: 0.787%
Emax [2]: 0.0351%
activity at 0.0002 µM [3]: 95.1%
activity at 0.001 µM [3]: 93.8%
activity at 0.005 µM [3]: 74.6%
activity at 0.025 µM [3]: 51.7%
activity at 0.1 µM [3]: 21.1%
activity at 0.5 µM [3]: 3.9%
activity at 2.5 µM [3]: 0.666%
Emax [3]: 18.4%
activity at 0.0002 µM [4]: 104%
activity at 0.001 µM [4]: 109%
activity at 0.005 µM [4]: 96.4%
activity at 0.025 µM [4]: 72.1%
activity at 0.1 µM [4]: 35.1%
activity at 0.5 µM [4]: 9.41%
activity at 2.5 µM [4]: 2.34%
Emax [4]: 0.04%
activity at 0.0002 µM [5]: 89%
activity at 0.001 µM [5]: 103%
activity at 0.005 µM [5]: 99.1%
activity at 0.025 µM [5]: 82.3%
activity at 0.1 µM [5]: 56.9%
activity at 0.5 µM [5]: 30.3%
activity at 2.5 µM [5]: 14.3%
Emax [5]: 11.8%
activity at 0.0002 µM (MK cells (MK-lin)): 86%
activity at 0.001 µM (MK cells (MK-lin)): 96.6%
activity at 0.005 µM (MK cells (MK-lin)): 89.1%
activity at 0.025 µM (MK cells (MK-lin)): 91.2%
activity at 0.1 µM (MK cells (MK-lin)): 62.2%
activity at 0.5 µM (MK cells (MK-lin)): 23.6%
activity at 2.5 µM (MK cells (MK-lin)): 7.89%
Emax (MK cells (MK-lin)): 7.37%
viability at 0.0002 µM [6]: 94.8%
viability at 0.001 µM [6]: 99.6%
viability at 0.005 µM [6]: 91.8%
viability at 0.025 µM [6]: 69.8%
viability at 0.1 µM [6]: 39.6%
viability at 0.5 µM [6]: 15.4%
viability at 2.5 µM [6]: 6.06%
EmaxT effects across cell types (overall statement) ([7]; QSP model fit, EmaxT > 1.0 = cell-killing): anti-proliferation effects on essentially just the HSCs and GMPs

— publication PMC7402526, “An in vitro quantitative systems pharmacology approach for deconvolving mechanisms of drug-induced, multilineage cytopenias” (PLoS Computational Biology, 2020)
